In publication PMC7590683, “Xanthine oxidase inhibitory activity of a new isocoumarin obtained from Marantodes pumilum var. pumila leaves” (BMC Complementary Medicine and Therapies, 2020):
Where two headings read alike, the source gives them in different places.

Key:
xanthine oxidase [1] = tested on: xanthine oxidase; design: method as in PMID 18201686; settings: cited from earlier work
xanthine oxidase [2] = tested on: xanthine oxidase; design: method as in PMID 30189275; settings: better than allopurinol; cited from earlier work
xanthine oxidase [3] = target: T1, xanthine oxidase (Bos taurus, UniProt P80457); assay: In vitro xanthine oxidase inhibitory assay; assay type: biochemical, cow; settings: for inhibition at 6.25 µg/mL: 6.25 μg/mL; for inhibition at 12.5 µg/mL: 12.5 μg/mL; for inhibition at 25 µg/mL: 25 μg/mL; for inhibition at 50 µg/mL: 50 μg/mL; for IC50: mean ± S.E.M., n = 3, read-out: IC50 value of xanthine oxidase inhibition (converted)
T1 construct: xanthine oxidase (cow’s milk) were purchased from Sigma-Aldrich Chemicals; purchased Sigma-Aldrich Chemicals (St. Louis, MO, USA); host or cells: cow's milk (natural source)
T1 sequence (P80457 whole entry): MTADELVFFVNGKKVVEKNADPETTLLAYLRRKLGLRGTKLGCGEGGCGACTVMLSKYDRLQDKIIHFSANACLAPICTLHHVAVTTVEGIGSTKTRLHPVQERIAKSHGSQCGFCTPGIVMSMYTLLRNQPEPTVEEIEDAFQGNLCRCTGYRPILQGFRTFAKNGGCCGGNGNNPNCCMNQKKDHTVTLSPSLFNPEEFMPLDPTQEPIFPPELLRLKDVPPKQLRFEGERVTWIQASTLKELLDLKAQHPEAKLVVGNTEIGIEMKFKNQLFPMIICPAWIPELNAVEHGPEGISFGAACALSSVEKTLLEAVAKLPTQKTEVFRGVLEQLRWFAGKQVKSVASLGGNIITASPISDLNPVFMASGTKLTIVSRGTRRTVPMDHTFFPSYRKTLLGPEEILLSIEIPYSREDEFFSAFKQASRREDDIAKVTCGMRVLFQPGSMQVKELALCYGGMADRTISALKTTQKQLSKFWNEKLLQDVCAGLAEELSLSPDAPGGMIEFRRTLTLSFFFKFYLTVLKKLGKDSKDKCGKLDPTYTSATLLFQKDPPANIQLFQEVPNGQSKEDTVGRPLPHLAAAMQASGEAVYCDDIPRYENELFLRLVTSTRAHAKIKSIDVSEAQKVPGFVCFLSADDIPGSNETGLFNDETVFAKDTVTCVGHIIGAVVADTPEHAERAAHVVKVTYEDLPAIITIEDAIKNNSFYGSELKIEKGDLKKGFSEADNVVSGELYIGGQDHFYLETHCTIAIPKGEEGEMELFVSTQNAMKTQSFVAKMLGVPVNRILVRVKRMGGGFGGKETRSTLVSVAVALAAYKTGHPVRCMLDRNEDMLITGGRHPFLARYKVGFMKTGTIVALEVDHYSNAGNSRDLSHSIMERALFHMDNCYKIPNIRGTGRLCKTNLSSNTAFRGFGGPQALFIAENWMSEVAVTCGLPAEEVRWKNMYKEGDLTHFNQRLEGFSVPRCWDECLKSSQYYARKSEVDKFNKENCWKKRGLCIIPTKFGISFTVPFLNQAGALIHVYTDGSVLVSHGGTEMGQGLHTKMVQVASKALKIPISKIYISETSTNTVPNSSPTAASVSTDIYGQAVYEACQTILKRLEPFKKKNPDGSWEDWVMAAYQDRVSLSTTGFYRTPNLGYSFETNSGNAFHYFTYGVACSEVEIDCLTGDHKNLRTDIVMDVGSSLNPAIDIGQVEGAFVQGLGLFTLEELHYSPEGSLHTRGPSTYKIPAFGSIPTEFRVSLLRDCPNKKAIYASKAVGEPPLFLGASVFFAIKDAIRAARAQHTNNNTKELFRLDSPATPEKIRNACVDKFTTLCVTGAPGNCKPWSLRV
Protocol: The xanthine oxidase inhibitory assay was carried out using a previously reported method with slight modifications. […] This was followed by dilution with potassium phosphate buffer (0.05 M, pH 7.5) to achieve the desired concentrations. Each test solution contained 0.5% DMSO. The assay was performed in triplicates in a 96-well microplate. […] Then, 100 μL of substrate solution, xanthine (0.15 mM, pH 7.5), was added before further incubating at 25 °C for 10 min. The final assay mixture was spectrophotometrically measured at 295 nm. Xanthine oxidase inhibitory activity was expressed as the percentage of xanthine oxidase inhibition and calculated using the following formula: %Xanthine Oxidase Inhibition=A−B−C−D/A−B×100

xanthine oxidase [4] = tested on: xanthine oxidase; design: method as in PMID 8572586; settings: cited from earlier work
[5] = read-out: Percentage of xanthine oxidase inhibition
[6] = 100 μg/mL, read-out: Percentage of xanthine oxidase inhibition

Structure (SMILES): O=c1cc(O)c2ccccc2o1 [4-hydroxycoumarin]
- mode of inhibition against xanthine oxidase (xanthine oxidase [1]): competitive inhibition

Structure (SMILES): O=c1oc2cc(O)cc(O)c2cc1-c1cccc(O)c1 [5,7-dihydroxy-3-(3-hydroxyphenyl) coumarin]
- xanthine oxidase inhibitory activity relative to allopurinol (xanthine oxidase [2]): 7 fold

Structure (SMILES): Cc1cc(=O)oc2cc(O)c(O)cc12 [7-hydroxy-4-methylesculetin]
- mode of inhibition against xanthine oxidase (xanthine oxidase [1]): competitive inhibition

Structure (SMILES): O=c1ccc2ccc(O)cc2o1 [7-hydroxycoumarin]
- mode of inhibition against xanthine oxidase (xanthine oxidase [1]): competitive inhibition

Structure (SMILES): Oc1ncnc2[nH]ncc12 [Allopurinol, allopurinol, reference compound]
- inhibition at 0.0064 µg/mL (xanthine oxidase [3]; [5]): 4.12%
- inhibition at 0.032 µg/mL (xanthine oxidase [3]; [5]): 17.8%
- inhibition at 0.16 µg/mL (xanthine oxidase [3]; [5]): 29.5%
- inhibition at 0.8 µg/mL (xanthine oxidase [3]; [5]): 93.7%
- inhibition at 4 µg/mL (xanthine oxidase [3]; [5]): 98.9%
- inhibition at 20 µg/mL (xanthine oxidase [3]; [5]): 99%
- inhibition at 100 µg/mL (xanthine oxidase [3]; [5]): 99.8%

Structure (SMILES): COc1cc(O)c(C)c2c(=O)oc(O)c(C)c12 [Compound 1, 3,7-dihydroxy-5-methoxy-4,8-dimethyl-isocoumarin]
- inhibition at 0.39 µg/mL (xanthine oxidase [3]; 0.39 μg/mL, read-out: Percentage of xanthine oxidase inhibition): 39.6 ± 0.68%
- inhibition at 0.78 µg/mL (xanthine oxidase [3]; 0.78 μg/mL, read-out: Percentage of xanthine oxidase inhibition): 54.14 ± 0.34%
- inhibition at 1.56 µg/mL (xanthine oxidase [3]; 1.56 μg/mL, read-out: Percentage of xanthine oxidase inhibition): 66.49 ± 0.05%
- inhibition at 3.13 µg/mL (xanthine oxidase [3]; 3.13 μg/mL, read-out: Percentage of xanthine oxidase inhibition): 76.17 ± 0.52%
- inhibition at 6.25 µg/mL (xanthine oxidase [3]; [5]): 86.02 ± 0.14%
- inhibition at 12.5 µg/mL (xanthine oxidase [3]; [5]): 91.75 ± 0.22%
- inhibition at 25 µg/mL (xanthine oxidase [3]; [5]): 95.04 ± 0.86%
- inhibition at 50 µg/mL (xanthine oxidase [3]; [5]): 96.91 ± 0.06%
- IC50 (xanthine oxidase [3]): 2.79 µM

Structure (SMILES): COC1=CC(=O)C(O)=C(CCCCCCC/C=C\CCCCCCCC2=C(O)C(=O)C=C(OC)C2=O)C1=O [Compound 2, Ardisiaquinone A]
- inhibition at 6.25 µg/mL (xanthine oxidase [3]; [5]): 9.11 ± 0.28%
- inhibition at 12.5 µg/mL (xanthine oxidase [3]; [5]): 14.5 ± 0.45%
- inhibition at 25 µg/mL (xanthine oxidase [3]; [5]): 36.31 ± 0.08%
- inhibition at 50 µg/mL (xanthine oxidase [3]; [5]): 74.08 ± 0.5%
- xanthine oxidase inhibitory activity (in words) (xanthine oxidase [3]; isolated compounds): low activity
- IC50 (xanthine oxidase [3]): 59 µM

Structure (SMILES): CCCC/C=C\CCCCCCCCCC1=C(O)C(=O)C=C(OC)C1=O [Compound 3, Maesanin]
- inhibition at 100 µg/mL (xanthine oxidase [3]; [5]): 0%

Structure (SMILES): CC[C@H](/C=C/[C@@H](C)[C@H]1CC[C@H]2[C@@H]3CC=C4C[C@@H](O)CC[C@]4(C)[C@H]3CC[C@]12C)C(C)C [Compound 4, Stigmasterol]
- inhibition at 100 µg/mL (xanthine oxidase [3]; [6]): 0%

Structure (SMILES): CCCCCCCCCCCCCCCCCCCCCCCC [Compound 5, Tetracosane]
- inhibition at 100 µg/mL (xanthine oxidase [3]; [6]): 0%

Structure (SMILES): CCCCCCCCCCCCCCCCC(=O)O [Compound 6, Margaric acid]
- inhibition at 100 µg/mL (xanthine oxidase [3]; [6]): 0%

Structure (SMILES): O=c1ccc2cc(O)c(O)cc2o1 [Esculetin]
- xanthine oxidase inhibitory activity (in words) (xanthine oxidase [4]): strong
- mode of inhibition against xanthine oxidase (xanthine oxidase [1]): competitive inhibition
- relative potency among selected coumarins against xanthine oxidase (xanthine oxidase [1]): most potent inhibitor

Structure (SMILES): O=c1ccc2ccccc2o1 [coumarin]
- mode of inhibition against xanthine oxidase (xanthine oxidase [1]): competitive inhibition

Structure (SMILES): O=C1CCc2ccccc2O1 [dihydrocoumarin]
- mode of inhibition against xanthine oxidase (xanthine oxidase [1]): competitive inhibition

Structure (SMILES): COc1cc2ccc(=O)oc2cc1O [scopoletin]
- mode of inhibition against xanthine oxidase (xanthine oxidase [1]): competitive inhibition
